Assay results from patent US6645954B2, “Compositions comprising ethisterone or its derivatives” (Multimed Limited, priority 1998, dated 2003).
“And” between values parts separate entries of the source, which are not always exact repeats. Equal values may be shown once.

Assays:
Total Testosterone [1] = experiment: Total Testosterone (TT) in fasting blood; assay type: in vivo, human
Source text: TT—Total Testosterone in nmol/l (NR 13-35)
(§1) Fasting blood samples were taken between 9 and 12 am to minimize the effects of diurnal variation, and analyses included the standard full biochemical, lipid and haematology profiles, prostate specific antigen and routine urine analysis. The endocrine assessment included follicle stimulating hormone (FSH) and luteinizing hormone (LH) prolactin, total testosterone (TT), dihydrotestosterone (DHT), sex hormone binding globulin (SHBG), oestradiol (E2) cortisol and either total thyroxine or TSH.

[2] = Andropause CheckList score (ACL) and clinical symptom response in hypogonadal men; assay type: in vivo, human; conditions: for clinical response / symptoms: Example 2, person, pre-treatment ACL 25, successive treatments
Description: ACL—Andropause CheckList Score—A questionnaire rating the incidence and severity of symptoms of the andropause. The greater the checklist score, the more severe are the symptoms.
These consecutive referrals were evaluated at interview by administering a questionnaire, the “Andropause Check List” which rated each symptom on a five point rating scale as being absent (0), slight (1), moderate (2), severe (3) or total (4). It also included questions on the monthly frequency of intercourse and masturbation. A detailed history was taken focussing especially on factors which might affect testicular function and this was entered onto a computerised database (Microsoft Access).
(§2) During treatment, the severity of symptoms and level of sexual activity on the Andropause Check List score was reassessed at three monthly intervals, as well as weight, blood pressure, resting pulse rate, full endocrine, biochemical and haematological profiles, and in some cases ultrasound studies of the prostate and testes. In all cases, subjects were used as their own controls in the comparison of the effects of treatment. All results were stored in a specially designed Microsoft Access database, and […] analyes were carried out using the SPSS version 9 programme.

progesterone receptors = molecular target: T1, progesterone receptors (Homo sapiens, UniProt P06401); conditions: cited from earlier work
T1 sequence (P06401 1-933): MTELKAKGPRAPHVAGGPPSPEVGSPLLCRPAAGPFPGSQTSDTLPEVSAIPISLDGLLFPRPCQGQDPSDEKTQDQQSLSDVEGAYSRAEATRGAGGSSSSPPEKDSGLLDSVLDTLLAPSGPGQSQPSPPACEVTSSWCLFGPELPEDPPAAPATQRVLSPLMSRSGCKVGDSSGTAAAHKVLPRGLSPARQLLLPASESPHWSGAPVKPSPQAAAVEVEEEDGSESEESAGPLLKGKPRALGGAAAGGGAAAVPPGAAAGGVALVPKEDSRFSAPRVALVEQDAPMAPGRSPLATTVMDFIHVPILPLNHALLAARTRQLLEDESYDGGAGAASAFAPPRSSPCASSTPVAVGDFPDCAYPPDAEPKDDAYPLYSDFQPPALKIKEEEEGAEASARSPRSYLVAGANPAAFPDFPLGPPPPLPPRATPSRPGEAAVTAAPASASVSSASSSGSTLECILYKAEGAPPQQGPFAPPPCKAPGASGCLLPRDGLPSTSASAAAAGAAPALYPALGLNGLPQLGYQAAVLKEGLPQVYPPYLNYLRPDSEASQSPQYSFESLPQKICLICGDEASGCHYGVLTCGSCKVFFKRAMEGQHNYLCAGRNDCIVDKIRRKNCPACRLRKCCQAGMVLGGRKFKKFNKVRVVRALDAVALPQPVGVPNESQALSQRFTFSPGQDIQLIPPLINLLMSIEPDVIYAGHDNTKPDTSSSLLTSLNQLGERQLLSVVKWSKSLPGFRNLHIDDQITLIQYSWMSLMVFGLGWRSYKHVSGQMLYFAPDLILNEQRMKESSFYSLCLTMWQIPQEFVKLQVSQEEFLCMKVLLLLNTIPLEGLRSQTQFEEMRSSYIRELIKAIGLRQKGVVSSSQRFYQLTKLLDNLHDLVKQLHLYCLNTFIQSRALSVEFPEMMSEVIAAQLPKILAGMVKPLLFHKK

Total Testosterone [3] = conditions: cited from earlier work
[4] = tested on: Prostate Specific Antigen; experiment: PSA, biochemistry and haematology profiles during treatment; assay type: in vivo, human; conditions: Example 5; D1 alone, 2 years
Source text: PSA—Total Prostate Specific Antigen in ug/l (NR<4.0)
as §1, §2

Luteinising Hormone = Luteinising Hormone (LH) in fasting blood; assay type: in vivo, human
Source text: LH—Luteinising Hormone in IU/l (NR 0.7-6)
as §1

Oestradiol = Oestradiol (E2) in fasting blood; assay type: in vivo, human
Source text: as §1

oestrogen receptors = conditions: cited from earlier work
[5] = Sexual activity (intercourse per month) reported by subjects; assay type: in vivo, human; conditions: Example 5, person; D1 alone, within 3 months; before: once a month
[6] = tested on: Follicle Stimulating Hormone; experiment: Follicle Stimulating Hormone (FSH) in fasting blood; assay type: in vivo, human
Source text: FSH—Follicle Stimulating Hormone in IU/l (NR 1-6)
as §1

[7] = tested on: Sex Hormone Binding Globulin; experiment: Sex Hormone Binding Globulin (SHBG) in fasting blood; assay type: in vivo, human; conditions: for Sex Hormone Binding Globulin: Clinical trial, FIG. 4, started above the normal range (20-45 nmol/l) in Danazol groups
Source text: SHBG—Sex Hormone Binding Globulin in nmol/l (NR 20-45)
as §1

Free Androgen Index = Free Androgen Index (FAI = TT/SHBG x 100); assay type: in vivo, human
Source text: It has been found (Carruthers, M. ‘The Male Menopause, Harpercollins’, London, 1996) that the symptoms associated with this condition arise due to an absolute or relative insufficiency of testosterone, particularly the latter, caused by a reduction in the Free Active Testosterone (FAT); that is a lack of testosterone present in an unbound state in blood plasma. Testosterone in vivo can be bound to sex hormone binding globulin (SHBG) and to a lesser extent, albumin. When bound the testosterone is not freely available to the body or bio-available. One of the best measures of this is the ‘Free Androgen Index’ (FAI). This is calculated by dividing the Total Testosterone (TT) by the ‘sex Hormone Binding Globulin’ (SHBG) and multiplying by a hundred to express it as a percentage. In the healthy, asymptomatic male this is normally in the range 70-100%. Symptoms of the andropause regularly appear when this drops below 50%, except in a few cases where the TT is low and the body appears to compensate by reducing SHBG levels to maintain the FAI.
FAI—Free Androgen Index (NR 70-100%)

dihydrotestosterone = experiment: Dihydrotestosterone (DHT) in fasting blood; assay type: in vivo, human; conditions: Clinical trial; treatment alone, without Danazol
Source text: as §1

[8] = Adverse effects / tolerability; conditions: Example 2
[9] = Example 1, R3 increased monthly to R4 then R6

C#C[C@]1(O)CC[C@H]2[C@@H]3CCC4=Cc5oncc5C[C@]4(C)[C@H]3CC[C@@]21C [Danazol, [1,2], oxazolo[4,5-b]17alpha-pregna-2,4-dien-20-yn-17beta-ol]
TT (Total Testosterone [1]; Example 5, D1 alone, within 3 months, pre-treatment 50): 48 nmol/L
total Andropause Check List (ACL) score ([2]; Clinical trial, FIG. 1, Danazol 100 mg alternate mornings or daily added to testosterone treatment, up to six 3-6 monthly visits): fell equally
efficacy of testosterone treatment for hypogonadal men ([2]; Clinical trial, danazol added to three different forms of testosterone treatment, particularly where SHBG raised): greatly increased their efficacy
clinical response ([2]; Example 5, D1 alone, for 2 years): maintained
ACL ([2]; Example 5, D1 alone, within 3 months, pre-treatment ACL 26): 14
affinity for progesterone receptors (progesterone receptors): low affinity
total plasma testosterone (Total Testosterone [3]; previous uses in women and men at doses of 200 to 600 mg): reduced
effects on PSA, full biochemistry or haematological profile [4]: no adverse effects
LH (gonadotrophins) (Luteinising Hormone; Clinical trial, FIG. 7, Danazol added to the testosterone treatment): greater reductions
LH (Luteinising Hormone; Example 5, D1 alone, within 3 months, pre-treatment 6.0): 2.9 IU/l
E2 (Oestradiol; Example 5, D1 alone, within 3 months, pre-treatment 120): < 44 pmol/L
interaction with oestrogen receptors (oestrogen receptors): does not interact with oestrogen receptors to any significant extent
sexual activity [5]: twice a week
FSH ([6]; Clinical trial, FIG. 6, Danazol added to the testosterone treatment): greater reductions
FSH ([6]; Example 5, D1 alone, within 3 months, pre-treatment 5.9): 4.5 IU/l
Sex Hormone Binding Globulin [7]: uniformly ended at the bottom end of it
SHBG ([7]; Example 5, D1 alone, successive values over 2 years, listed as D1): 19 nmol/L and 23 nmol/L and 17 nmol/L
SHBG ([7]; Example 5, D1 alone, within 3 months, pre-treatment 72): 39 nmol/L
Free Androgen Indices (Free Androgen Index; Clinical trial, FIG. 5, Danazol added to the three testosterone treatments): markedly increased
FAI (Free Androgen Index; Example 5, D1 alone, within 3 months, pre-treatment 69.4): 123%

C[C@H]1CC(=O)C[C@@H]2CC[C@H]3[C@@H]4CC[C@H](O)[C@@]4(C)CC[C@@H]3[C@]21C [ME, mesterolone]
clinical response / symptoms [2]: poor clinical response
DHT (dihydrotestosterone): trebling

CCCCCCCCCCC(=O)O[C@H]1CC[C@H]2[C@@H]3CCC4=CC(=O)CC[C@]4(C)[C@H]3CC[C@]12C [Restandol, testosterone undecanoate]
TT (Total Testosterone [1]; Example 1, R3 increased monthly to R4 then R6, pre-treatment 27.4): 21.4 nmol/L
TT (Total Testosterone [1]; Example 3, person, R6, after 3 months, pre-treatment 20): 22.2 nmol/L
relief of symptoms ([2]; Example 1, person, R3 increased at monthly intervals to R4 then R6): only partial relief of symptoms
clinical response / symptoms [2]: poor clinical response
clinical results ([2]; Example 6, further reduction of testosterone dosage to the lowest level of R2): excellent
LH (Luteinising Hormone; Example 1, R3 increased monthly to R4 then R6, pre-treatment 6.1): 6.7 IU/l
E2 (Oestradiol; [9]): 178 pmol/L
FSH [6, 9]: 8.9 IU/l
Sex Hormone Binding Globulin [7]: reduction in SHBG levels on its own
SHBG ([7]; Example 1, R3 increased monthly to R4 then R6, Restandol alone, pre-treatment 73): 47 nmol/L
SHBG ([7]; Example 3, R6, after 3 months, pre-treatment 56.7): 112 nmol/L
FAI (Free Androgen Index; Example 1, R3 increased monthly to R4 then R6, pre-treatment 38%): 46%
FAI (Free Androgen Index; Example 3, R6, after 3 months, pre-treatment 35): 19.8%

C[C@]12CC[C@H]3[C@@H](CCC4=CC(=O)CC[C@@]43C)[C@@H]1CC[C@@H]2O [TI, testosterone]
TT (Total Testosterone [1]; Example 1, TI, a year later): 35.6 nmol/L
TT (Total Testosterone [1]; Example 3, TI, after 6 months): 30.6 nmol/L
adverse events of implant [8]: became infected on several occasions, with extrusion of pellets
symptoms ([2]; Example 1, TI, 3 years after starting treatment): symptoms reappeared
erection problems ([2]; Example 1, after change to TI): rapidly improved
clinical response / symptoms [2]: relieved their symptoms
mean testosterone levels (Total Testosterone [3]; previous study, samples taken 3 months after implantation): 45 nmol/L
LH (Luteinising Hormone; Example 1, TI, a year later): total suppression
DHT (dihydrotestosterone): no increase
FSH ([6]; Example 1, TI, a year later): total suppression
SHBG ([7]; Example 1, TI, a year later): 74 nmol/L
SHBG ([7]; Example 3, TI alone, successive values during the following 2 years): 82.1 nmol/L and 85 nmol/L and 54 nmol/L and 81 nmol/L
SHBG ([7]; Example 3, TI, after 6 months): 95.3 nmol/L
FAI (Free Androgen Index; Example 1, TI, a year later): 48%
FAI (Free Androgen Index; Example 3, TI, after 6 months): 32%
